Measurements from publication PMC11219871, “Epigenetic-based differentiation therapy for Acute Myeloid Leukemia” (Nature Communications, 2024).
In brackets after ≈: the same amount, converted by molar mass. Several values for one entry are separate records, joined by “and”; a condition that tells them apart may be missing. Equal entries are not always repeated.

Experiments:
HDAC11 = target: T1, HDAC11 (Homo sapiens, UniProt Q96DB2); assay: Continuous and direct activity assay for HDAC11; format: biochemical; conditions: for inhibition at 10 µM: source data of Fig. 1B; for IC50: Continuous Activity Assay for HDAC11
T1 sequence (Q96DB2 1-347): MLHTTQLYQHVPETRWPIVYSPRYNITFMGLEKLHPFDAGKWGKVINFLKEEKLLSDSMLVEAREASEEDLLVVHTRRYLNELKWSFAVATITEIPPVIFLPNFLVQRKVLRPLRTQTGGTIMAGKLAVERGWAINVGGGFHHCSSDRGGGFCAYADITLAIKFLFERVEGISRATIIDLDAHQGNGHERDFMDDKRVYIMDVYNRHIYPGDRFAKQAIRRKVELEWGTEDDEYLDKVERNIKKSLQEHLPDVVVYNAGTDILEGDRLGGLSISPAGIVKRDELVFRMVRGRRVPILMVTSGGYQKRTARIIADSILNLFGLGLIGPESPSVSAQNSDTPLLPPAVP

HDAC8 = target: T2, HDAC8 (Homo sapiens, UniProt Q9BY41); assay: HDAC assay (Eurofins); format: biochemical
T2 construct: purchased Eurofins (contracted assay service)
T2 sequence (Q9BY41 1-377): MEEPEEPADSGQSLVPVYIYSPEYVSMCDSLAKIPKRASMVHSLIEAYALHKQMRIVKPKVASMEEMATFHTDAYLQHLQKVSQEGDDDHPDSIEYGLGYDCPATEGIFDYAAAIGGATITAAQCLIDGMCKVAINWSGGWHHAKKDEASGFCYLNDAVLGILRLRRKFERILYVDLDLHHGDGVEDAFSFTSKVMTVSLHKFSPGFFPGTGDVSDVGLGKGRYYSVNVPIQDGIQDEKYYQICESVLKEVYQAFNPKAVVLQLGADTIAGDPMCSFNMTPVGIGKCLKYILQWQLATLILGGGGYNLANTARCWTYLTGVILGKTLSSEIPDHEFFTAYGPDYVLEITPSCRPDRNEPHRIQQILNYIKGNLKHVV

MOLM-13 = assay: Cell-cycle analysis; format: cell-based, human; conditions: MOLM-13, 48 hours
Experimental: (§1) […] Next, the cells were washed twice with PBS and resuspended in 0.2% Tween 20 in PBS and 0.5 mg/mL Rnase A (Ribonuclease A Type III-A from bovine pancreas, Cat No. R5125, Sigma), and then incubated for 30 min at 37 °C. Subsequently, the cells were stained with 25 μg/mL of propidium iodide (Cat No P4170, Sigma) and analyzed using a BD FACSCanto flow cytometer (Becton Dickinson, San Jose, CA, USA).

HL-60 = assay: Cell-cycle analysis; format: cell-based, human; conditions: HL-60, treatment for 48 hours; replicates 1-3 (Figure 2F)
Experimental: as §1

MV4-11 = assay: Cell-cycle analysis; format: cell-based, human; conditions: MV4-11, 48 hours
Experimental: as §1

ML-2 = assay: Cell-cycle analysis; format: cell-based, human; conditions: ML-2, treatment for 48 hours; replicates 1-3 (Figure 2F)
Experimental: as §1

Kinetic solubility = format: physicochemical; conditions: PBS buffer, aqueous buffer, kinetic from dmso stock, pH 7.4, PBS
Experimental: This study was conducted at Wuxi (http://www.wuxi.com/). Stock solutions of test compounds (10 mM; 100% DMSO) and 490 μL of PBS buffer at pH = 7.4 were added in the lower chamber of Whatman’s Mini-Uniprep vials. After vortex mixing for ≥2 min, the vials were shaken at 800 rpm for 24 h and finally centrifuged at 1520 g for 20 min. The concentration of the filtrate was quantified by HPLC (calibration curve from 1.5624 μM to 200 μM). Amiodarone hydrochloride, carbamazepine and chloramphenicol were used as controls.

[1] = Plasma protein binding (equilibrium dialysis); format: in vitro ADME; conditions: pH 7.4, Human
Experimental: This study was conducted by Equilibrium Dialysis at Wuxi (http://www.wuxi.com/). HT Dialysis plate (Model HTD 96 b, Cat# 1006) and the dialysis membrane (molecular weight cutoff of 12–14 kDa, Cat# 1101) were purchased from HT Dialysis LLC (Gales Ferry, CT). Human plasma (BioIVT, # […]2P2N) and CD-1 mouse plasma (Beijing Vital River Laboratory Animal Technology Co., Ltd.) were thawed prior to experiments under running cold tap water and centrifuged at 3320 × g for 5 min to remove any clots, and the pH was checked. Only plasma from pH 7.0 to 8.0 was used. The dialysis membrane was pretreated according to the manufacturer’s instructions. Test compounds and warfarin (control) were assayed at a final concentration of 2 μM. Aliquots of 50 μL loading plasma (matrix) containing test or control compound in triplicate were transferred to Sample Collection Plates, respectively. The samples were matched with opposite blank buffer to obtain a final volume of 100 μL with a volume ratio of plasma (matrix) to dialysis buffer (1:1, v-v) in each well immediately. […] Concentrations of test compounds in the starting solution (before dialysis), the plasma side of the membrane, and the buffer side of the membrane were quantified by LC-MS/MS using a peak area ratio of analyte/internal standard. The fraction of unbound, bound, and recovery were calculated. […]

| Structure (SMILES) | inhibition at 10 µM (HDAC11) [%] | IC50 (HDAC11) [nM] | IC50 (HDAC8) [nM] | inhibition at 10 µM (HDAC8) [%] | Cell number (%) G1 (MOLM-13) | Cell number (%) G2/M (MOLM-13) | Cell number (%) S (MOLM-13) | Cell number (%) G1 (HL-60) | Cell number (%) G2/M (HL-60) | Cell number (%) S (HL-60) | Cell number (%) G1 (MV4-11) | Cell number (%) G2/M (MV4-11) | Cell number (%) S (MV4-11) | Cell number (%) G1 (ML-2) | Cell number (%) G2/M (ML-2) | Cell number (%) S (ML-2) | solubility at 24 h (Kinetic solubility) [µg/mL] | fraction unbound at 4 h, 2 µM [1] |
| --- | --- | --- | --- | --- | --- | --- | --- | --- | --- | --- | --- | --- | --- | --- | --- | --- | --- | --- |
| COc1cc2nc(-c3ccc(C)o3)cc(NCC3CCN(c4ncc(C(=O)NO)cn4)CC3)c2cc1OC [CM-444, 2-[4-[[[6,7-dimethoxy-2-(5-methyl-2-furyl)-4-quinolyl]amino]methyl]-1-piperidyl]pyrimidine-5-carbohydroxamic acid] | 90 | 568 | 83 | 100 | 98.91% and 98.32% and 98.59% | 0.29% and 0.03% and 0.73% | 1.06% and 0.95% and 1.11% | 96.96% and 93.22% and 91.97% | 4.36% and 1.34% and 3.53% | 1.70% and 3.26% and 3.67% | 92.37% and 89.49% and 89.94% | 2.21% and 0.68% and 3.29% | 6.95% and 7.22% and 7.84% | 96.26% and 93.16% and 96.12% | 0.0429% and 0.75% and 2.61% | 2.99% and 4.24% and 3.84% | 118 (≈ 227 µM) | 0.011 ± 0.001 |
| COc1cc2nc(-c3cc(C)oc3C)cc(NCC3CCN(c4ncc(C(=O)NO)cn4)CC3)c2cc1OC [CM-1758, 2-[4-[[[2-(2,5-dimethyl-3-furyl)-6,7-dimethoxy-4-quinolyl]amino]methyl] -1-piperidyl]pyrimidine-5-carbohydroxamic acid] | 90 | 600 | 200 | 100 | 94.79% and 97.36% and 97.43% | 0.72% and 2.84% and 0.69% | 2.37% and 1.95% and 1.85% | 79.37% and 83.97% and 81.85% | 6.97% and 12.93% and 5.78% | 7.70% and 10.26% and 11.19% | 84.98% and 89.31% and 85.09% | 8.40% and 10.00% and 4.67% | 5.02% and 6.02% and 6.51% | 90.78% and 86.19% and 89.03% | 6.71% and 3.95% and 9.23% | 5.26% and 4.58% and 4.26% | > 144 | 0.01 |
